In US9359352B2, “Substituted benzimidazoles as PI3 kinase inhibitors” (Intellikine LLC, priority 2010, dated 2016):

What was measured:
Format in all cases: biochemical
PI3K γ = biological target: T1, PI3K γ (Homo sapiens, UniProt P48736); experiment: PI 3-Kinase HTRF inhibition assay, PI3K γ; conditions: in vitro
T1 construct: purchased Upstate

PI3K α = biological target: T2, PI3K α (Homo sapiens, UniProt P42336); experiment: PI 3-Kinase HTRF inhibition assay, PI3K α; conditions: in vitro; read-out: PI3K α IC50
T2 construct: purchased Upstate
T2 sequence (P42336 whole entry): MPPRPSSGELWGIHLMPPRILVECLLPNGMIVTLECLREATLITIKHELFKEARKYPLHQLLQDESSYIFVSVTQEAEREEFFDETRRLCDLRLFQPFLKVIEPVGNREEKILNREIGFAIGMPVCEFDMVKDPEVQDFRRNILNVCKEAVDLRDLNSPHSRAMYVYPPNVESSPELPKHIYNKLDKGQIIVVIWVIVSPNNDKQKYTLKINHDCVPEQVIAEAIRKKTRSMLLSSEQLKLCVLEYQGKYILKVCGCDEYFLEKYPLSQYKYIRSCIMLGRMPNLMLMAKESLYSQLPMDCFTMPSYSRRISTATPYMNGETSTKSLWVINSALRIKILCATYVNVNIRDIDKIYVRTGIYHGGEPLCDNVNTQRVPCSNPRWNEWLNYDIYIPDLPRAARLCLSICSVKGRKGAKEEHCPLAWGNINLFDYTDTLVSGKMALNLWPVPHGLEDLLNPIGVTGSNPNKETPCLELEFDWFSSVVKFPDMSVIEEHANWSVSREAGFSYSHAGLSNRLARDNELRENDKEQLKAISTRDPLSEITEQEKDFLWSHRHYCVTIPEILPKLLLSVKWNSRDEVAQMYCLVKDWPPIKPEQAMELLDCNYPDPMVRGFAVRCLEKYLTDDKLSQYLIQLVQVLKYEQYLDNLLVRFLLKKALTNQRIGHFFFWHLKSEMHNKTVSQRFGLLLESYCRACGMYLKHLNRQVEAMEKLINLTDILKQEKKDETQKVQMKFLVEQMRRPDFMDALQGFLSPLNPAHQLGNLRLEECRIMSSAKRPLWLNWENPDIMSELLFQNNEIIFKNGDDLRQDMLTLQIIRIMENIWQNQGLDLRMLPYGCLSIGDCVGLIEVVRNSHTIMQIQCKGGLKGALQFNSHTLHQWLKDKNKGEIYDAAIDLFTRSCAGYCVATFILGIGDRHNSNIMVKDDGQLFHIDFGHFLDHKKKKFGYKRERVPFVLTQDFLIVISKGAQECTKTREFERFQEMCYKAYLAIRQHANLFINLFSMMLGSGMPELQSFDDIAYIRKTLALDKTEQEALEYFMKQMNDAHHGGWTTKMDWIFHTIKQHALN
T2 sequence (P27986 whole entry partner): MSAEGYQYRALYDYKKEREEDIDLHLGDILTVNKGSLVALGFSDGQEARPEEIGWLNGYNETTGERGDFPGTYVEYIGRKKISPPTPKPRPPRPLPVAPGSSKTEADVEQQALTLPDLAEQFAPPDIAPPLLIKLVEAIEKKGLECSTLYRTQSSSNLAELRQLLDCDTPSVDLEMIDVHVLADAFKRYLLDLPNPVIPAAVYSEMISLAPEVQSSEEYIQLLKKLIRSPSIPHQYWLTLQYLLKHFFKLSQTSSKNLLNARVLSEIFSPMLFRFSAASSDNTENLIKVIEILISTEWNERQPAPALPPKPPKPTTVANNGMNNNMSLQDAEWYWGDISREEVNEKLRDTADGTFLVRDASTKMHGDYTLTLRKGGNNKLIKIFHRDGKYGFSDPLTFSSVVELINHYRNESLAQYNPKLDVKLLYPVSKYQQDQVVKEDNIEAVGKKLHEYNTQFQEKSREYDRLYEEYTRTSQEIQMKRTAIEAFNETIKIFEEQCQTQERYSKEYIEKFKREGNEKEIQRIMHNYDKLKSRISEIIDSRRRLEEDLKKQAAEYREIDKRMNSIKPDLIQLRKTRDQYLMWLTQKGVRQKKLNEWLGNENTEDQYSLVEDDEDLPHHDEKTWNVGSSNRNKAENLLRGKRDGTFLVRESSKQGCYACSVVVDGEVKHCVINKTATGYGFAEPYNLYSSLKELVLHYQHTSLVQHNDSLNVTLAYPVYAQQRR
Protocol: (§1) Commercial kits or systems for assaying PI3-K activities are available. The commercially available kits or systems can be used to screen for inhibitors and/or agonists of PI3-Ks including but not limited to PI 3-Kinase α, β, δ, and γ. An exemplary system is PI 3-Kinase (human) HTRF™ Assay from Upstate. […] Briefly, the assay is a time resolved FRET assay that indirectly measures PIP3 product formed by the activity of a PI3-K. The kinase reaction is performed in a microtitre plate (e.g., a 384 well microtitre plate). The total reaction volume is approximately 20 ul per well. In the first step, each well receives 2 ul of test compound in 20% dimethylsulphoxide resulting in a 2% DMSO final concentration. Next, approximately 14.5 ul of a kinase/PIP2 mixture (diluted in 1× reaction buffer) is added per well for a final concentration of 0.25-0.3 ug/ml kinase and 10 μM PIP2. The plate is scaled and incubated for 15 minutes at room temperature. To start the reaction, 3.5 ul of ATP (diluted in 1× reaction buffer) is added per well for a final concentration of 10 μM ATP. The plate is sealed and incubated for 1 hour at room temperature. The reaction is stopped by adding 5 ul of Stop Solution per well and then 5 ul of Detection Mix is added per well. The plate is sealed, incubated for 1 hour at room temperature, and then read on an appropriate plate reader. Data is analyzed and IC50s are generated using GraphPad Prism 5. For PI3K α, β, δ, and γ, the nM concentration of inhibitor to reach IC50 is provided. […] Similar assays, and others known in the art, can be used to measure the percent inhibition of other kinases, including but not limited to PI3K class II kinases, phosphoinositide 4 kinases (PI4K), and phosphoinositide 5 kinases (PI5K).

PI3K β = biological target: T3, PI3K β (Homo sapiens, UniProt P42338); experiment: PI 3-Kinase HTRF inhibition assay, PI3K β; conditions: in vitro
T3 construct: purchased Upstate
T3 sequence (P42338 whole entry): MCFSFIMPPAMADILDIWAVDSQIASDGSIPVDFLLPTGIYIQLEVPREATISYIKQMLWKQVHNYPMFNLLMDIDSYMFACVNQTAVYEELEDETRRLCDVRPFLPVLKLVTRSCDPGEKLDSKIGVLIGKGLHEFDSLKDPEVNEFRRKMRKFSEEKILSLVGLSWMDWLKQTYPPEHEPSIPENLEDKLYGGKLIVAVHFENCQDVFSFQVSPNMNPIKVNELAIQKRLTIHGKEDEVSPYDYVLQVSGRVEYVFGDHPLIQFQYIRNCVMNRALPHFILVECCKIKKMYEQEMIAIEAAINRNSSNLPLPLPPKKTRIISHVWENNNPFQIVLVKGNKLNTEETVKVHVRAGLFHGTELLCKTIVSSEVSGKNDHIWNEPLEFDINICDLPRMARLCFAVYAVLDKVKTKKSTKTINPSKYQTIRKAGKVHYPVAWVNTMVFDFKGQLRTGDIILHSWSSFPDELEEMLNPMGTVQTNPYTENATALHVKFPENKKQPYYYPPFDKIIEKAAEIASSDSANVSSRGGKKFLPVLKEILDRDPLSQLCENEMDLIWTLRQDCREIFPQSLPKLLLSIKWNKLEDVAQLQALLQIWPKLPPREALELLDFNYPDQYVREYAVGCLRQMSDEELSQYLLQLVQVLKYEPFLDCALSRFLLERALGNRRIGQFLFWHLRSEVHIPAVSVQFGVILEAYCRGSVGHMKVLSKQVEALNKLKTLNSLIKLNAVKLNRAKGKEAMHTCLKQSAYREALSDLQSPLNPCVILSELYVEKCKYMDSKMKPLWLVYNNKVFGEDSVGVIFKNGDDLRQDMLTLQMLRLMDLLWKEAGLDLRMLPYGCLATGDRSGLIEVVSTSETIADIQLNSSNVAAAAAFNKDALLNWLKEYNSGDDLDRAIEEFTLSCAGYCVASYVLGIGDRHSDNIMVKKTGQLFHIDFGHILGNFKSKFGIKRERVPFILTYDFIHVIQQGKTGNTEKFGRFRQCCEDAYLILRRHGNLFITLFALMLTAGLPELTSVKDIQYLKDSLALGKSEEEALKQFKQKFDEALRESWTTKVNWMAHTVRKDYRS
T3 sequence (P27986 whole entry partner): as the sequence (P27986 whole entry partner) above
Protocol: as §1

PI3K δ = biological target: T4, PI3K δ (Homo sapiens, UniProt O00329); experiment: PI 3-Kinase HTRF inhibition assay, PI3K δ; conditions: in vitro; read-out: PI3K δ IC50
T4 construct: purchased Upstate
T4 sequence (O00329 whole entry): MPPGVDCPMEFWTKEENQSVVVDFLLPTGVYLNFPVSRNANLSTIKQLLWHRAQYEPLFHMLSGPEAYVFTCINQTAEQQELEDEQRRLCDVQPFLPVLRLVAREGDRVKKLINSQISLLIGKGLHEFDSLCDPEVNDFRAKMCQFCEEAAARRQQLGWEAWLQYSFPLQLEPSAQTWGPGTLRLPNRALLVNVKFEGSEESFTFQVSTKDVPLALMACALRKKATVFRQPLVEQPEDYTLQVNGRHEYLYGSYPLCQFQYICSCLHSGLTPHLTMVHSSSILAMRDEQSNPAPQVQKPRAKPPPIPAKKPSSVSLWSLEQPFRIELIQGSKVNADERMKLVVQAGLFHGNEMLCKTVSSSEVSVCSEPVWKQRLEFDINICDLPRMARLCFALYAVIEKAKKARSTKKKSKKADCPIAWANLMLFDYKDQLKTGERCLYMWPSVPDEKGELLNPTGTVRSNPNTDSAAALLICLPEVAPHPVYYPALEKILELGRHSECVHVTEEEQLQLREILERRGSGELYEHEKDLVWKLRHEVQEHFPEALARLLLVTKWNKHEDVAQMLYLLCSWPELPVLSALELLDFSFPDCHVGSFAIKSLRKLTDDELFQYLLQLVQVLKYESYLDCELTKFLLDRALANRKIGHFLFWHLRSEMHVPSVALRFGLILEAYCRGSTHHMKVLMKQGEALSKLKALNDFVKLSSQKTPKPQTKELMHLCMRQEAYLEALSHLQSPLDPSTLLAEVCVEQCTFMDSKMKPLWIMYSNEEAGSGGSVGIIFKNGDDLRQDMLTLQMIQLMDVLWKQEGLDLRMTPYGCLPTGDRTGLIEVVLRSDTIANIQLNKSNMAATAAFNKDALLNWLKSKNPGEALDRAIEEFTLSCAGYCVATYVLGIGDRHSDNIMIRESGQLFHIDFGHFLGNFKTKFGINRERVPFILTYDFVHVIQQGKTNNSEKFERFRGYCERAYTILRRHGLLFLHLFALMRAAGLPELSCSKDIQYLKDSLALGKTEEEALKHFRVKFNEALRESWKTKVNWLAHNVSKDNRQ
T4 sequence (P27986 whole entry partner): as the sequence (P27986 whole entry partner) above
Protocol: as §1

T1 sequence (P48736 whole entry): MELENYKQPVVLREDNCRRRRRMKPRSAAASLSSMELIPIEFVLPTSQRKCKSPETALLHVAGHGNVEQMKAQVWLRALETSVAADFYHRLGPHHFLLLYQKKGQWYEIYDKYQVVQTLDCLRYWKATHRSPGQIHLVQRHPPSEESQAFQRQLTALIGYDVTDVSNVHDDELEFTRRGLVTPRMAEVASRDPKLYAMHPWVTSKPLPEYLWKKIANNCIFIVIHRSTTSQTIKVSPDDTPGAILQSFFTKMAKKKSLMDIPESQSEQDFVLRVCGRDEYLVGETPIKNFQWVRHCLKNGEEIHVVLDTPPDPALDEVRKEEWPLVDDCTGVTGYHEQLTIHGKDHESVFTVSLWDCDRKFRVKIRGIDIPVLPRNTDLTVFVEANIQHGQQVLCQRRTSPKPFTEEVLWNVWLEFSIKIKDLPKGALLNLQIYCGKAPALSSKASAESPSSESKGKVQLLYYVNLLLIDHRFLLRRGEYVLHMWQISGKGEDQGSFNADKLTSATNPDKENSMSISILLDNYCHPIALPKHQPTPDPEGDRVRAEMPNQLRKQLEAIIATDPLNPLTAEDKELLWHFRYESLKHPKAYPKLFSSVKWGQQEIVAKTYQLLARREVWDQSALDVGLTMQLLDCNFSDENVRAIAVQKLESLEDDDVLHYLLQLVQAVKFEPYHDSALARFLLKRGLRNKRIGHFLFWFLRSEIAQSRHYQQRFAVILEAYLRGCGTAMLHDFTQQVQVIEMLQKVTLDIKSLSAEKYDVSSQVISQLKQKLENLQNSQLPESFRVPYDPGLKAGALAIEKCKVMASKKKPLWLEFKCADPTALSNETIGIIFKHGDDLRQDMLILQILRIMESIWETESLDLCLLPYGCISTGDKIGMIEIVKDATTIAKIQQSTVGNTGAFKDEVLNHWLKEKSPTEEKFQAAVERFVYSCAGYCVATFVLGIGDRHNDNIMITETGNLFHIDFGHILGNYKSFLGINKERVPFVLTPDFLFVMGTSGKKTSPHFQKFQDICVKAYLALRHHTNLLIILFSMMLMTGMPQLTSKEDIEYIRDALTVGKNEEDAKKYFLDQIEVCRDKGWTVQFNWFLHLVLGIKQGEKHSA

SMILES	IC50 (PI3K γ) [µM]	IC50 (PI3K α) [µM]	IC50 (PI3K β) [µM]	IC50 (PI3K δ) [µM]
CS(=O)(=O)N1CCN(C2CN(c3cnc4ccc(-c5ccc6oc(N)nc6c5)nc4n3)C2)CC1 [Compound 8]	< 1	< 0.1	> 10	< 10
Nc1nc2cc(-c3ccc4ncc(N5CC(N6C7CCC6COC7)C5)nc4n3)ccc2o1 [Compound 51]	> 10	< 10	> 10	> 10
CCN1CCN(C2CN(c3cnc4ccc(-c5ccc6nc(N)[nH]c6c5)nc4c3)C2)CC1 [Compound 87]	> 10	< 0.1	> 10	> 10
Nc1nc2cc(-c3ccc4ncc(N5CC(N6CCN(C7CC7)CC6)C5)cc4n3)ccc2o1 [Compound 70]	< 1	< 0.1	< 10	< 10
Nc1nc2cc(-c3ccc4ncc(N5CC6CCC(C5)O6)cc4n3)ccc2o1 [Compound 59]	< 0.1	< 0.1	> 10	> 10
NCC(=O)N1CCN(c2cnc3ccc(-c4ccc5oc(N)nc5c4)nc3n2)CC1 [Compound 33]	< 10	< 0.1	< 10	< 10
C[C@@H]1COCCN1C1CN(c2cnc3ccc(-c4ccc5oc(N)nc5c4)nc3n2)C1 [Compound 49]	< 10	< 10	> 10	> 10
Nc1nc2cc(-c3ccc4ncc(N5CCC(O)CC5)nc4n3)ccc2o1 [Compound 45]	< 0.1	< 0.1	< 10	> 10
Nc1nc2cc(-c3ccc4ncc(N5CCC(F)(F)CC5)nc4n3)ccc2o1 [Compound 13]	< 0.1	< 0.1	> 10	> 10
C[C@H]1CN(C2CN(c3cnc4ccc(-c5ccc6nc(N)[nH]c6c5)nc4c3)C2)CCN1C [Compound 89]	> 10	< 0.1	> 10	> 10
CN1CCN(c2ccc3ncc(-c4ccc5oc(N)nc5c4)cc3n2)CC1 [Compound 80]	> 10	< 10	< 10	> 10
Nc1nc2cc(-c3ccc4ncc(N5CCN(C(=O)C6(N)CC6)CC5)cc4n3)ccc2o1 [Compound 42]	< 0.1	< 0.1	< 1	< 1
CC(C)N1CCN(c2cnc3ccc(-c4ccc5oc(N)nc5c4)nc3n2)CC1 [Compound 32]	< 1	< 0.1	< 1	< 10
CN1CCN(c2cnc3ccc(-c4ccc5oc(N)nc5c4)nc3n2)CC1 [Compound 4]	< 10	< 1	< 1	< 10
CN1CCN(C2CN(c3cnc4ccc(-c5ccc6oc(N)nc6c5)nc4c3)C2)CC1=O [Compound 64]	< 0.1	< 0.1	< 10	< 1
C[C@@H]1CN(C2CN(c3cnc4ccc(-c5ccc6nc(N)[nH]c6c5)nc4c3)C2)CCN1C [Compound 86]	> 10	< 0.1	> 10	> 10
C[C@H]1COCCN1C1CN(c2cnc3ccc(-c4ccc5oc(N)nc5c4)nc3n2)C1 [Compound 61]	< 10	< 0.1	> 10	< 10
CN1CCN(C2CN(c3cnc4ccc(-c5ccc6oc(N)nc6c5)nc4c3)C2)CC1 [Compound 74]	< 1	< 0.1	< 1	< 1
Nc1nc2cc(-c3ccc4nc(N5CCOCC5)cnc4n3)ccc2o1 [Compound 7]	> 10	> 10	> 10	> 10

SMILES	IC50 (PI3K γ) [µM]	IC50 (PI3K α) [µM]	IC50 (PI3K β) [µM]	IC50 (PI3K δ) [µM]
Nc1nc2cc(-c3ccc4ncc(N5CCOCC5)nc4n3)ccc2o1 [Compound 2, 5-(3-morpholinopyrido[2,3-b]pyrazin-6-yl)benzo[d]oxazol-2-amine]	< 0.1	< 0.1	< 1	> 10
CCOC(=O)N1CCN(c2cnc3ccc(-c4ccc5oc(N)nc5c4)nc3n2)CC1 [Compound 6]	< 1	< 0.1	< 1	< 1
C[C@@H]1CN(C2CN(c3cnc4ccc(-c5ccc6oc(N)nc6c5)nc4n3)C2)CCN1C [Compound 25]	< 10	< 0.1	> 10	< 10
Nc1nc2cc(-c3ccc4ncc(N5CCOCC5)cc4n3)ccc2o1 [Compound 22]	< 0.1	< 0.1	< 1	> 10
CN1CCN(c2cnc3ccc(-c4ccc5oc(N)nc5c4)nc3c2)CC1 [Compound 24]	< 1	< 0.1	< 0.1	< 10
Nc1nc2cc(-c3ccc4ncc(-c5cccnc5)cc4n3)ccc2o1 [Compound 16]	< 0.1	< 0.1	< 10	< 10
C[C@@H]1COCCN1C1CN(c2cnc3ccc(-c4ccc5oc(N)nc5c4)nc3c2)C1 [Compound 66]	< 0.1	< 0.1	< 10	< 1
CC(C)(N)C(=O)N1CCN(c2ccc3ncc(-c4ccc5oc(N)nc5c4)cc3n2)CC1 [Compound 82]	< 10	< 10	> 10	> 10
C[C@H](N)C(=O)N1CCN(c2cnc3ccc(-c4ccc5oc(N)nc5c4)nc3n2)CC1 [Compound 30]	< 0.1	< 0.1	< 0.1	< 0.1
Nc1nc2cc(-c3ccc4ncc(N5CC(N6CCOCC6)C5)cc4n3)ccc2o1 [Compound 53]	< 1	< 0.1	< 10	< 10
CCOC(=O)N1CC=C(c2cnc3ccc(-c4ccc5oc(N)nc5c4)nc3n2)CC1 [Compound 9]	< 0.1	< 0.1	< 10	< 10
C[C@@H]1CN(C2CN(c3cnc4ccc(-c5ccc6oc(N)nc6c5)nc4n3)C2)CCN1 [Compound 12]	> 10	< 0.1	> 10	< 10
Nc1nc2cc(-c3ccc4ncc(N5CC(N6CCN(CC7CC7)CC6)C5)nc4n3)ccc2o1 [Compound 35]	< 10	< 0.1	< 10	< 10
Nc1nc2cc(-c3ccc4ncc(N5CCC(O)CC5)cc4n3)ccc2o1 [Compound 62]	< 1	< 0.1	< 10	< 10
CC(C)N1CCN(C2CN(c3cnc4ccc(-c5ccc6nc(N)[nH]c6c5)nc4c3)C2)CC1 [Compound 85]	> 10	< 0.1	> 10	> 10
Nc1nc2cc(-c3ccc4ncc(N5CCNC(=O)C5)nc4n3)ccc2o1 [Compound 29]	< 0.1	< 0.1	< 1	< 10
C[C@H]1COCCN1C1CN(c2cnc3ccc(-c4ccc5oc(N)nc5c4)nc3c2)C1 [Compound 68]	< 10	< 0.1	> 10	> 10
C[C@@H]1CN(c2cnc3ccc(-c4ccc5oc(N)nc5c4)nc3n2)CCN1 [Compound 27]	< 1	< 0.1	< 0.1	< 10
